The structures appear in SMILES notation. Values joined by “and” are separate entries in the source; they are usually repeats but may differ in a detail not shown here. Equal values may be shown once.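 Five compound concentrations were applied to cells in 96-well plates for 48 hours; endpoints were derived by simple linear interpolation of the resulting dose-response curve. GI50: concentration for 50% inhibition of growth. TGI marks complete inhibition of growth.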 Where only a bound is given, the exact number is not on record here.

Test systems include A549 NSCLC; CAKI-1 renal; CCRF-CEM leukemia; MALME-3M melanoma; MDA-MB-231 breast; RPMI-8226 leukemia; SK-MEL-2 melanoma; SK-MEL-28 melanoma; SN12C renal; T-47D breast.
Holding throughout (experiment): growth of human tumour cells (NCI), 48 h

Turning to `CCC(CC)c1cc(N[C@H]2CC[C@H](N)C2)n2nccc2n1`, the GI50 in the assay on A549 NSCLC is 0.511 µM; with CAKI-1 renal it was 0.423 µM; in the assay with CCRF-CEM leukemia it was 1.08 µM; in the assay on MALME-3M melanoma, 2.07 µM; with MDA-MB-231 breast, 1.05 µM; with RPMI-8226 leukemia, 2.61 µM. Also, the GI50 with SK-MEL-2 melanoma is 1.64 µM; with SK-MEL-28 melanoma, 1.93 µM; in the assay on SN12C renal, 0.691 µM; in the assay with T-47D breast, 0.759 µM. Also, the TGI in the assay on A549 NSCLC was greater than 100 µM; with CAKI-1 renal, greater than 100 µM; with CCRF-CEM leukemia, greater than 100 µM; in the assay with MALME-3M melanoma, 6.24 µM; with MDA-MB-231 breast it was greater than 100 µM; with RPMI-8226 leukemia, greater than 100 µM. Also, the TGI in the assay with SK-MEL-2 melanoma is 3.64 µM; in the assay on SK-MEL-28 melanoma it was 5.24 µM; in the assay with SN12C renal, greater than 100 µM; in the assay on T-47D breast it was greater than 100 µM.
Consider `CCOC(=O)Nc1ccc2nc(N3CCCCCC3)sc2c1`, for which the GI50 was 3.32 µM in the assay on A549 NSCLC; 2.2 µM in the assay with CAKI-1 renal; 1.97 µM in the assay on CCRF-CEM leukemia; 1.35 µM in the assay with MALME-3M melanoma; 3.19 µM in the assay on MDA-MB-231 breast; 3.33 µM in the assay on RPMI-8226 leukemia. The GI50 with SK-MEL-2 melanoma is 2.67 µM; in the assay with SK-MEL-28 melanoma, 7.14 µM; in the assay with SN12C renal, 5.08 µM; with T-47D breast, 4.7 µM. Further, the TGI was greater than 100 µM in the assay on A549 NSCLC; greater than 59.5 µM in the assay on CAKI-1 renal; greater than 100 µM in the assay on CCRF-CEM leukemia; 55.7 µM with MALME-3M melanoma; greater than 56.8 µM with MDA-MB-231 breast; 26.3 µM in the assay on RPMI-8226 leukemia. The TGI in the assay on SK-MEL-2 melanoma was greater than 72.5 µM; in the assay on SK-MEL-28 melanoma it was greater than 91.7 µM; with SN12C renal it was greater than 100 µM; with T-47D breast it was greater than 84.3 µM.
As for `O=C(NCCCl)NCCN1c2nc3ccccc3cc2Sc2cc3ccccc3nc21`, the GI50 in the assay with A549 NSCLC was 4.64 µM; with CAKI-1 renal, 14.7 µM; in the assay with CCRF-CEM leukemia it was 0.3 µM; in the assay with MALME-3M melanoma, 0.968 µM; with MDA-MB-231 breast it was 2.71 µM; with RPMI-8226 leukemia, 0.245 µM. For the same compound, the GI50 is 2.21 µM in the assay on SK-MEL-2 melanoma, 2.8 µM in the assay with SK-MEL-28 melanoma, 3.04 µM with SN12C renal and 2.04 µM with T-47D breast. Further, the TGI in the assay on A549 NSCLC was 23.1 µM; in the assay on CAKI-1 renal it was greater than 55.3 µM; with CCRF-CEM leukemia, 3.62 µM; in the assay on MALME-3M melanoma it was 15.4 µM; in the assay on MDA-MB-231 breast it was 17.8 µM; in the assay with RPMI-8226 leukemia it was 1.64 µM. For the same compound, the TGI was 8.53 µM in the assay with SK-MEL-2 melanoma, 8.53 µM with SK-MEL-28 melanoma, greater than 47.6 µM with SN12C renal and 12 µM in the assay on T-47D breast.
Regarding `O=C(/C=C\c1cc(Br)ccc1O)/C=C/c1cc(Br)ccc1O`, the GI50 is 2.61 µM in the assay on A549 NSCLC; 0.938 µM in the assay with CAKI-1 renal; 0.282 µM with CCRF-CEM leukemia; 1.5 µM with MALME-3M melanoma; 0.372 µM in the assay with MDA-MB-231 breast; 0.3 µM in the assay with RPMI-8226 leukemia. In addition, the GI50 in the assay on SK-MEL-2 melanoma is 2.25 µM; in the assay with SK-MEL-28 melanoma, 0.555 µM; with SN12C renal, 1.47 µM; in the assay on T-47D breast it was 0.635 µM. The TGI was 13.5 µM in the assay on A549 NSCLC; 3.33 µM with CAKI-1 renal; 10.5 µM in the assay with CCRF-CEM leukemia; 3.08 µM in the assay with MALME-3M melanoma; 4.07 µM in the assay with MDA-MB-231 breast; 1.4 µM in the assay with RPMI-8226 leukemia. Besides, the TGI with SK-MEL-2 melanoma was determined as 6.15 µM; with SK-MEL-28 melanoma it was 1.96 µM; in the assay on SN12C renal, 4.63 µM; with T-47D breast, 4.94 µM.
Consider `C=C1C[C@@H](O)[C@@H](Br)C(C)(C)[C@]12CCC(C)(Br)C(Cl)C2` (stereo not given in full), for which the GI50 with A549 NSCLC is 16.7 µM; in the assay on CAKI-1 renal, 18.3 µM; with CCRF-CEM leukemia, 1.05 µM; in the assay with MALME-3M melanoma, 16.5 µM; in the assay with MDA-MB-231 breast, 16.8 µM; in the assay on RPMI-8226 leukemia, 12.6 µM. For the same compound, the GI50 with SK-MEL-2 melanoma was 16.5 µM; with SK-MEL-28 melanoma, 18 µM; with SN12C renal, 16.5 µM; in the assay on T-47D breast it was 19 µM. For the same compound, the TGI is > 50 µM and 37.7 µM in the assay on A549 NSCLC; > 50 µM and 37.2 µM in the assay with CAKI-1 renal; > 50 µM and 14.4 µM with CCRF-CEM leukemia; > 50 µM and 33.4 µM in the assay with MALME-3M melanoma; > 50 µM and 31.5 µM with MDA-MB-231 breast; 50 µM and 33.3 µM with RPMI-8226 leukemia. In addition, the TGI was > 50 µM and 30.4 µM with SK-MEL-2 melanoma; > 50 µM and 36.8 µM in the assay with SK-MEL-28 melanoma; > 50 µM and 31.3 µM in the assay with SN12C renal; > 50 µM and 49.3 µM with T-47D breast.
Consider `Nc1nc(=S)c2ncn(C3OC(CO)C(O)C3O)c2[nH]1` (stereo not given), for which the GI50 in the assay with A549 NSCLC was 3.69 µM; in the assay with CAKI-1 renal, 0.703 µM; with CCRF-CEM leukemia it was 0.318 µM; in the assay on MALME-3M melanoma, 1.2 µM; in the assay with MDA-MB-231 breast, 1.39 µM; with RPMI-8226 leukemia it was 0.322 µM. The GI50 in the assay on SK-MEL-2 melanoma is 10.5 µM; in the assay on SK-MEL-28 melanoma, 13.7 µM; in the assay with SN12C renal, 3.98 µM; in the assay with T-47D breast it was 0.511 µM. Besides, the TGI in the assay on A549 NSCLC was greater than 33.6 µM; in the assay with CAKI-1 renal it was 5.88 µM; with CCRF-CEM leukemia it was greater than 68.2 µM; in the assay with MALME-3M melanoma it was 31.1 µM; with MDA-MB-231 breast, greater than 100 µM; in the assay with RPMI-8226 leukemia, 2.29 µM. Moreover, the TGI in the assay on SK-MEL-2 melanoma is greater than 100 µM; in the assay on SK-MEL-28 melanoma it was greater than 100 µM; in the assay on SN12C renal, greater than 100 µM; in the assay with T-47D breast it was 83.3 µM.
Take `CCCCCCCCCCCCNC(=O)N[C@H](C(=O)N[C@H]1/C=C/CCNC(=O)/C=C/[C@H](C)NC1=O)C(C)C`: the GI50 in the assay on A549 NSCLC was 0.262 µM; with CAKI-1 renal, 4.95 µM; with CCRF-CEM leukemia, 0.0495 µM; in the assay on MALME-3M melanoma, 0.422 µM; in the assay on MDA-MB-231 breast it was 0.0709 µM; in the assay on RPMI-8226 leukemia it was 0.0309 µM. Moreover, the GI50 with SK-MEL-2 melanoma was 0.207 µM; in the assay on SK-MEL-28 melanoma, 0.208 µM; in the assay on SN12C renal, 0.184 µM; in the assay on T-47D breast, 0.144 µM. For the same compound, the TGI in the assay on A549 NSCLC was 9.07 µM; in the assay with CAKI-1 renal it was greater than 100 µM; in the assay on CCRF-CEM leukemia it was 5.13 µM; with MALME-3M melanoma, 2.99 µM; with MDA-MB-231 breast, 0.277 µM; in the assay with RPMI-8226 leukemia, 1 µM. The TGI in the assay on SK-MEL-2 melanoma was determined as 0.627 µM; with SK-MEL-28 melanoma, 0.708 µM; in the assay with SN12C renal, 0.591 µM; in the assay on T-47D breast, 0.36 µM.

Source of the values: PubChem BioAssay (NCI).
